Experimental data reported in patent publication US8546537B2, “Streptavidin having low immunogenicity and use thereof” (The University of Tokyo, priority 2009, dated 2013).

Experiments:
[1] = background art; cited from earlier work
[2] = Kinetics analysis of interaction between streptavidin protein and biotin using Biacore biosensor; format: binding; conditions: for Kd: Biacore 3000, obtained from kd/ka, read-out: Dissociation constant Kd
Description: As a ligand (a substance to be attached to a sensor chip) used for a Biacore (registered trademark) biosensor, an anti-mouse IgG antibody (manufactured by GE Healthcare Biosciences) was used. On the other hand, as analytes (substances to be supplied to the flow channel system), a biotinylated mouse antibody and various types of mutant streptavidins were prepared, and intermolecular interaction was then analyzed using Biacore (registered trademark) 3000 (a biosensor based on the principle of surface plasmon resonance; manufactured by GE Healthcare Biosciences). The anti-mouse IgG antibody was immobilized on all of the flow cells of a CM5 sensor chip according to an amine coupling method. The amount of the antibody immobilized on each flow cell was 8000 RU. Subsequently, as references, non-biotinylated mouse antibodies were captured onto Flow Cells 1 and 3, and biotinylated mouse antibodies were captured onto Flow Cells 2 and 4. Various types of streptavidins were loaded in a running buffer (HBS-EP; manufactured by GE Healthcare Biosciences) on Flow Cells 1 and 2, or 3 and 4, at a flow rate of 20 μl/min for 2 minutes. Thereafter, dissociation of each sample was monitored for 7 minutes. Thereafter, a reproduction operation was carried out using a 10 mM glycine-HCl buffer (pH 1.7) (manufactured by GE Healthcare Biosciences), and repeat measurement was then carried out. Using the analysis software BIAevaluation ver. 4.1, a reaction kinetics analysis was performed on a 1:1 binding model based on the obtained sensorgram, so as to calculate an association rate constant (ka) and a dissociation rate constant (kd). A dissociation constant (Kd) was obtained from kd/ka.
The results of the kinetics analysis of the intermolecular interaction of a recombinant streptavidin and a biotin, which was carried out using Biacore (registered trademark) 3000 (a biosensor based on the principle of surface plasmon resonance; manufactured by GE Healthcare Biosciences), are as shown in Table 2.

[3] = Biacore 3000, biotinylated mouse antibody captured, 1:1 binding model

Row | Dissociation rate constant kd [2, 3] | Kd [2] | Substance | isoelectric point [1] | Association rate constant ka [2, 3]
1 | 6.32 × 10^−5 S^−1 | 0.225 nM | cSA_WT: wild-type (native) core streptavidin, amino acid sequence SEQ ID NO: 2 [reference compound] | around the neutral range | 2.81 × 10^5 M^−1 S^−1
2 | 7.49 × 10^−4 S^−1 | 3.53 nM | mcSA_W120A: streptavidin mutant named W120A in Table 2; not described further [reference compound] | – | –
3 | – | – | Avidin: basic glycoprotein derived from albumen | exceeds 10 | –
